SMILES strings stand for the structures. Bounds are passed on as bounds.

Molecule `CC(=O)N1CCN(CCN2C3=C(C(=O)CC(C)(C)C3)C(c3ccc(Cl)cc3)C3=C2CC(C)(C)CC3=O)CC1` yielded a melting point of 213 °C. In turn, `O=S(=O)(c1ccccc1)C1CC1(Cl)Cl` (stereo not given) showed a melting point of 83 to 88 °C.

`Cc1noc(-c2ccccc2CBr)n1` returned a melting point of 64 to 67 °C. Next, `COc1ccc(Cl)cc1N=C=S`: 58 °C; `Cn1c(=O)c2c(ncn2CC(O)CO)n(C)c1=O` (stereo not given): 162 °C. Take `CC(C=CC=C(C)C=CC1=C(C)CCCC1(C)C)=CC=O`: the melting point amounted to 63 °C. `OCc1cccc2c1OCCCO2`: the melting point fell in the range of 47 to 48 °C.

With `COc1ccc(-c2cc(C(F)(F)F)nc(N)n2)cc1`, the melting point was in the range of 191 to 194 °C. For `CCCC(N)P(=O)(O)O` (stereo not given) the value was 276 to 281 °C. Turning to `Nc1ccc2c(c1)OCCO2`, the melting point worked out at 28 °C.

The molecule `CCCC(C)c1ccccc1` (stereo not given) displayed a melting point of -70 °C. `CCN(CC)C(=O)c1[nH]c(C)c(C)c1C` displayed a melting point of 113 to 115 °C. For `Brc1ccc(Oc2cc(Br)ccc2Br)c(Br)c1` the value was less than 20 °C; for `N#CCS(=O)(=O)Cc1ccc(Cl)cc1`, 179 to 182 °C. In the case of `C[Si](C)(C)c1ccc([Si](C)(C)C)cc1`, the melting point lay within 92 to 96 °C. For the molecule `Cc1cc(Br)cc(Cl)c1O`, the melting point was 45 to 47 °C. `Cc1nc(/C(C#N)=N/Nc2ccccc2[N+](=O)[O-])sc1/N=N/c1ccccc1` returned a melting point of 210 °C. Next, `Cc1ccc2c(c1Cl)C(=O)c1ccccc1C2=O`: 170 °C; `C[Si](C)(Cl)O[Si](C)(C)Cl`: -37.5 °C; `Cc1nnc(SCc2ccccc2)n1N=Cc1ccccc1Cl`: 121 to 123 °C. Take `O=Cc1cccc(-c2ncccn2)c1`: the melting point is 98 to 100 °C. Regarding `COc1cccc(-c2cccc(OC)c2)c1`, the melting point stood at 36 °C.

Molecule `Brc1c(Br)c(Br)c(Br)c(Br)c1Br` yielded a melting point of 326 °C. Next, `O=C1NC(=S)NC(=O)C1=NNc1ccc(Br)cc1`: 268 °C; `O=C(O)c1ccccc1Nc1cccc(F)c1`: 158 to 163 °C; `CC(/C=C(C)/C=C/c1ccccc1)=NNS(=O)(=O)c1ccc(C)cc1`: 138 to 142 °C. For `Cc1ccc2c(c1)/C(=N/NC(N)=O)CC2C` (stereo not given) the value was 227 °C. In the case of `CC(=O)Nc1ccc(S(=O)(=O)Cl)cc1Cl`, the melting point was 143 to 145 °C. Next, `Brc1ccc(Oc2c(Br)cc(Br)cc2Br)cc1`: 134 to 136 °C; `O=C(C=Cc1ccccc1)c1ccc(F)cc1`: 79 to 80 °C; `O=S(=O)(c1ccccc1)n1cc(Br)c2ccccc21`: 120 to 121 °C. `O=Cc1cc(Br)ccc1Br` displayed a melting point of 95 °C. For `CC(C)c1cc(C(C)C)c(S(N)(=O)=O)c(C(C)C)c1` the value was 115 °C.

With `FC(F)(F)C(F)(Cl)Cl`, the melting point was -56.6 °C.

Molecule `COC(=O)c1ccc(N)nc1` registered a melting point of 159 to 160 °C.

The molecule `Nc1ccc(C2=NN(c3ccccc3)C(=O)C2)cc1` registered a melting point of 160 °C. `O=[N+]([O-])c1ccnc(Cl)c1` gave a melting point of 52 °C. For `CCc1ccc(C(c2ccc(C(c3ccc(CC)o3)c3ccc(CC)o3)cc2)c2ccc(CC)o2)o1` the value was 81 °C; for `Cc1c(C)n2c(CBr)c(C)c(=O)n2c1=O`, 152 °C; for `CCCCCCCCCCCCCCCCCN`, 49 °C. `CCCCNC(=O)COC(=O)c1ccccc1` had a melting point of 69.5 °C.

`CCOc1cc(-c2nccc3cc(OC)c(OC)cc23)cc(OCC)c1OCC`: the melting point is 98 to 103 °C. Consider `Oc1ccnc(Cl)c1`, for which the melting point came out at 171 °C. For `COc1ccc(CNC(=O)c2ccccc2)cc1OCc1ccccc1` the value was 143 °C; for `CCOC1Oc2ccc(C)cc2C(=O)/C1=C/Nc1nc2ccc(Cl)cc2s1` (stereo not given), 146 to 148 °C.

As for `CC(=O)OC1(c2ccccc2)Cc2ccccc21` (stereo not given), the melting point turned out to be 76 °C.

In turn, `Clc1ccnc2ccccc12` came in with a melting point of 34.5 °C. The molecule `CCOC(=O)C(CSC(=O)C(C)(C)Br)NC(C)=O` (stereo not given) came in with a melting point greater than 20 °C.

Molecule `O=C1CCC2CC1CCC2=O` returned a melting point of 151 °C. Next, `CC(=O)Nc1cc(NC(C)=O)c(OCCO)cc1OCCO`: 206 °C; `COc1ccccc1C1Nn2c(nnc2-c2cccnc2)S1` (stereo not given): 221 °C; `O=C1C(=C2C=Cc3cc(-c4ccccc4)ccc3N2)C(=O)c2ccccc21`: 270 to 271 °C. For `CCOc1ccc(NC(=O)OC(C)C)cc1OCC` the value was 100 °C; for `Brc1cnc2ccccn12`, 93 °C. `COC(=O)[C@@H]1[C@H](c2ccccc2)C(C#N)=C(C(SC)SC)[C@@]1(O)c1ccccc1` displayed a melting point of 164 to 165 °C. As for `O=C(Cl)c1ccc2noc(-c3ccc(Cl)cc3)c2c1`, the melting point turned out to be 180 °C. `Cc1cccc(Cl)c1C=O`: the melting point stood at 37 °C. Molecule `O=[N+]([O-])c1cccc(Oc2ccccn2)c1` had a melting point of 93 to 95 °C. Next, `Cn1c(C(=O)O)cc2sccc21`: 154 to 156 °C. As for `CC(C)(C)c1ccc(Oc2ccc([N+](=O)[O-])cc2C=O)cc1`, the melting point is 134 to 136 °C.

In turn, `S=C(Nc1ccccc1)c1ccccc1` displayed a melting point of 102 °C. `C=CCc1ccccc1` came in with a melting point of -40 °C. Next, `CCCCc1ccc(/N=N/c2ccc(OC(=O)CC)cc2)cc1`: 84 to 87 °C; `CCCCSC(=Nc1cccnc1)SCc1ccc(C(C)(C)C)cc1`: 32 °C. For `CC(=O)CN1C(=O)N2CCc3ccccc3C2(c2ccc(Cl)cc2)C1=O` (stereo not given) the value was 173 to 175 °C. Next, `CC(=O)N1C(=O)N2CCc3ccccc3C2(c2ccc(Cl)cc2)C1=O` (stereo not given): 135 to 136 °C; `Cc1cc(O)cc(C)c1C#N`: 176 to 177 °C; `Cc1ccccc1NC(=O)c1cncc(Cl)n1`: 98 °C.

In turn, `O=C1NN=C(C(F)(F)F)C1=NNc1ccccc1C(=O)O` had a melting point of 274 °C.

In the case of `C1=CCCC=C1`, the melting point was -89 °C. Next, `CCCN`: -83 °C; `N#Cc1ccccc1S(=O)(=O)Cl`: 69 to 70 °C; `OCc1ccc(N2CCCC2)nc1`: 61 to 62 °C.

For `CS(=O)(=O)OCCCNCCCOS(C)(=O)=O`, the melting point was 116 °C.

Consider `Cc1c(Br)sc2ccc(Cl)cc12`, for which the melting point was found to be 106 °C. For `Nc1ccc(I)cc1C(=O)O` the value was 219 to 221 °C. Take `COc1cc2c(cc1OC)C(c1ccccc1[N+](=O)[O-])N(C(C)=O)CC2` (stereo not given): the melting point was in the range of 132 to 134 °C.

As to `CC(=O)c1ccc(C#N)s1`, the melting point stood at 78 °C. For `COC(=O)Cc1csc2ccc(Cl)cc12` the value was 55 to 56 °C; for `CCCCCc1cc(O)c2c(c1)OC(C)(C)C1CCC(C)=CC21` (stereo not given), 200 °C. Next, `Cc1cc2c(cc1C)C(=O)c1ccccc1C2=O`: 211 °C; `C#Cc1ccc(Cl)cc1`: 45 °C; `C=CCCCCCCC1CO1` (stereo not given): 25 °C.

As for `CCOC(=O)c1c(C)[nH]c2ccc(O)cc12`, the melting point lay in the range of 206 to 210 °C.

`CCOC(=O)c1c(C)cc(O)cc1O` showed a melting point of 132 °C. With `OCc1cccc2cccc(CO)c12`, the melting point was 155 to 158 °C.

For the molecule `COC(=O)CC(CC(=O)OC)(c1cc(C)c(O)c(C)c1)c1cc(C)c(O)c(C)c1`, the melting point came out at 199 °C.

As for `O=C(O)c1cc([N+](=O)[O-])cc(C(F)(F)F)c1`, the melting point was determined as 130 °C. Next, `CC(=O)C1(O)CCC2C3C=C(C)C4=CC(=O)CCC4(C)C3CCC21C` (stereo not given): 219 °C. For `COS(=O)(=O)Cl` the value was -70 °C; for `c1ccc(NNc2ccccc2)cc1`, 131 °C. Next, `c1ccc(-c2ncoc2-c2ccccc2)cc1`: 44 °C.

Take `N#Cc1ccc(N2CCCCC2)cc1`: the melting point is 51 to 53 °C. In the case of `CCC12CC3CC(CC(Br)(C3)C1)C2`, the melting point lay within 23 to 24 °C. In turn, `CCOOCC` showed a melting point of -70 °C. Molecule `N#Cc1ccc(OC2CCOCC2)nc1` gave a melting point of 134 to 135 °C. Consider `CC(=O)c1c(C)nc2cc3nc(C)c(C(C)=O)c(C)c3cc2c1C`, for which the melting point is 246 to 248 °C. Next, `CC(=O)O[C@H]1[C@H](OC(C)=O)[C@@H](S(=O)(=O)c2ccccc2)OC[C@H]1OC(C)=O`: 145 to 148 °C; `O=C1NC(=O)C(=NO)C(=O)N1`: 236 to 242 °C.

`Cc1c(C)c([N+](=O)[O-])c(C)c(C)c1[N+](=O)[O-]` gave a melting point of 212 °C.

As to `CC(CCC(=O)O)C1CCC2C3C(=O)C(Br)C4CC(C(=O)O)CCC4(C)C3CC(C(=O)O)C12C` (stereo not given), the melting point lay within 229 to 230 °C. Consider `O=C(Cl)c1ccc(-c2cccs2)s1`, for which the melting point fell in the range of 73.3 to 74.4 °C.

Molecule `ClC1=C(Cl)C2(Cl)C3C4C=CC(C4)C3C1(Cl)C2(Cl)Cl` (stereo not given) had a melting point of 240 °C. For `CCc1cnc(C2=NC(C)(C(C)C)C(=O)N2)c(C(=O)O)c1` (stereo not given) the value was 171 °C; for `Oc1ccccc1/C=N/n1c(-c2ccccc2)n[nH]c1=S`, 209 to 210 °C; for `C=C1C(=CC=C2CCCC3(C)C2CCC3C(C)CCCC(C)C)CC(O)CC1O` (stereo not given), 136 °C. As for `FC(F)(F)C(F)(F)C(F)(F)C(F)(F)F`, the melting point is -128 °C. Next, `Nc1cc2c3ccccc3ccc2c2ccccc12`: 210 °C; `CC(=O)CS(=O)(=O)c1ccccc1`: 55 to 59 °C; `CC(C)OC(=O)C1(S(=O)(=O)c2ccc(Cl)cc2)CCCC1`: 92.5 °C.

Broadly, the melting point is the temperature of the solid-liquid transition.

The record behind these values is a melting point compilation (Tetko et al.).
